± gives the expanded uncertainty stated by the source.
Assay: activity coefficient (dimensionless); of the first substance listed, at infinite dilution; xn = mol fraction of the nth substance listed
Conditions: 101.33 kPa, Liquid, Chromatography, x1 = 0

SMILES | activity coefficient (313.15 K) | activity coefficient (323.15 K) | activity coefficient (333.15 K) | activity coefficient (343.15 K) | activity coefficient (298.15 K)
Cc1ccccc1C [1,2-dimethylbenzene] + CC(CC(C)(C)C)CP(=O)([O-])CC(C)CC(C)(C)C.CCCCCCCCCCCCCC[P+](CCCCCC)(CCCCCC)CCCCCC | 0.6 ± 0.04 | 0.62 ± 0.04 | 0.64 ± 0.04 | 0.67 ± 0.05 | –
Cc1cccc(C)c1 [1,3-dimethylbenzene] + CC(CC(C)(C)C)CP(=O)([O-])CC(C)CC(C)(C)C.CCCCCCCCCCCCCC[P+](CCCCCC)(CCCCCC)CCCCCC | 0.63 ± 0.04 | 0.65 ± 0.04 | 0.67 ± 0.05 | 0.7 ± 0.05 | –
Cc1ccc(C)cc1 [1,4-dimethylbenzene] + CC(CC(C)(C)C)CP(=O)([O-])CC(C)CC(C)(C)C.CCCCCCCCCCCCCC[P+](CCCCCC)(CCCCCC)CCCCCC | 0.6 ± 0.04 | 0.63 ± 0.04 | 0.65 ± 0.04 | 0.69 ± 0.05 | –
C=CCCCCCCCC [1-decene] + CC(CC(C)(C)C)CP(=O)([O-])CC(C)CC(C)(C)C.CCCCCCCCCCCCCC[P+](CCCCCC)(CCCCCC)CCCCCC | 0.98 ± 0.06 | 1.04 ± 0.07 | 1.15 ± 0.07 | 1.18 ± 0.08 | –
C=CCCCCC [1-heptene] + CC(CC(C)(C)C)CP(=O)([O-])CC(C)CC(C)(C)C.CCCCCCCCCCCCCC[P+](CCCCCC)(CCCCCC)CCCCCC | 0.77 ± 0.05 | 0.81 ± 0.05 | 0.88 ± 0.06 | 0.95 ± 0.06 | –
C=CCCCCCCC [1-nonene] + CC(CC(C)(C)C)CP(=O)([O-])CC(C)CC(C)(C)C.CCCCCCCCCCCCCC[P+](CCCCCC)(CCCCCC)CCCCCC | 0.91 ± 0.06 | 0.95 ± 0.06 | 1.08 ± 0.07 | 1.14 ± 0.07 | –
CC(C)CC(C)(C)C [2,2,4-trimethylpentane] + CC(CC(C)(C)C)CP(=O)([O-])CC(C)CC(C)(C)C.CCCCCCCCCCCCCC[P+](CCCCCC)(CCCCCC)CCCCCC | 0.92 ± 0.06 | 0.96 ± 0.06 | 1.04 ± 0.07 | 1.14 ± 0.07 | –
CCC(C)(C)C [2,2-dimethylbutane] + CC(CC(C)(C)C)CP(=O)([O-])CC(C)CC(C)(C)C.CCCCCCCCCCCCCC[P+](CCCCCC)(CCCCCC)CCCCCC | 0.78 ± 0.05 | 0.82 ± 0.05 | 0.9 ± 0.06 | 0.97 ± 0.06 | –
CC(C)=O [acetone] + CC(CC(C)(C)C)CP(=O)([O-])CC(C)CC(C)(C)C.CCCCCCCCCCCCCC[P+](CCCCCC)(CCCCCC)CCCCCC | 0.7 ± 0.05 | 0.72 ± 0.05 | 0.78 ± 0.05 | 0.83 ± 0.05 | –
CC#N [acetonitrile] + CC(CC(C)(C)C)CP(=O)([O-])CC(C)CC(C)(C)C.CCCCCCCCCCCCCC[P+](CCCCCC)(CCCCCC)CCCCCC | 1.34 ± 0.09 | 1.4 ± 0.09 | 1.41 ± 0.09 | 1.46 ± 0.1 | –
c1ccccc1 [benzene] + CC(CC(C)(C)C)CP(=O)([O-])CC(C)CC(C)(C)C.CCCCCCCCCCCCCC[P+](CCCCCC)(CCCCCC)CCCCCC | 0.42 ± 0.04 | 0.45 ± 0.04 | 0.49 ± 0.04 | 0.52 ± 0.04 | –
CCCCO [butan-1-ol] + CC(CC(C)(C)C)CP(=O)([O-])CC(C)CC(C)(C)C.CCCCCCCCCCCCCC[P+](CCCCCC)(CCCCCC)CCCCCC | – | – | 0.11 ± 0.03 | 0.12 ± 0.03 | –
CCC(C)=O [butanone] + CC(CC(C)(C)C)CP(=O)([O-])CC(C)CC(C)(C)C.CCCCCCCCCCCCCC[P+](CCCCCC)(CCCCCC)CCCCCC | 0.65 ± 0.04 | 0.67 ± 0.05 | 0.72 ± 0.05 | 0.77 ± 0.05 | –
C1=CCCCC1 [cyclohexene] + CC(CC(C)(C)C)CP(=O)([O-])CC(C)CC(C)(C)C.CCCCCCCCCCCCCC[P+](CCCCCC)(CCCCCC)CCCCCC | 0.57 ± 0.04 | 0.59 ± 0.04 | 0.64 ± 0.04 | 0.68 ± 0.05 | –
C1CCCCCCC1 [cyclooctane] + CC(CC(C)(C)C)CP(=O)([O-])CC(C)CC(C)(C)C.CCCCCCCCCCCCCC[P+](CCCCCC)(CCCCCC)CCCCCC | 0.7 ± 0.05 | 0.71 ± 0.05 | 0.77 ± 0.05 | 0.79 ± 0.05 | –
CCCCCCCCCC [decane] + CC(CC(C)(C)C)CP(=O)([O-])CC(C)CC(C)(C)C.CCCCCCCCCCCCCC[P+](CCCCCC)(CCCCCC)CCCCCC | 1.22 ± 0.08 | 1.28 ± 0.08 | 1.33 ± 0.09 | 1.39 ± 0.09 | –
CCO [ethanol] + CC(CC(C)(C)C)CP(=O)([O-])CC(C)CC(C)(C)C.CCCCCCCCCCCCCC[P+](CCCCCC)(CCCCCC)CCCCCC | – | 0.04 | 0.06 | 0.07 ± 0.03 | –
CCc1ccccc1 [ethylbenzene] + CC(CC(C)(C)C)CP(=O)([O-])CC(C)CC(C)(C)C.CCCCCCCCCCCCCC[P+](CCCCCC)(CCCCCC)CCCCCC | 0.57 ± 0.04 | 0.6 ± 0.04 | 0.65 ± 0.04 | 0.68 ± 0.05 | –
CCCCCC [hexane] + CCCCCCCCCCCCCCCC | – | – | – | – | 0.874 ± 0.056
CO [methanol] + CC(CC(C)(C)C)CP(=O)([O-])CC(C)CC(C)(C)C.CCCCCCCCCCCCCC[P+](CCCCCC)(CCCCCC)CCCCCC | 0.03 | 0.04 | 0.05 | 0.06 | –
CC1CCCCC1 [methylcyclohexane] + CC(CC(C)(C)C)CP(=O)([O-])CC(C)CC(C)(C)C.CCCCCCCCCCCCCC[P+](CCCCCC)(CCCCCC)CCCCCC | 0.64 ± 0.04 | 0.68 ± 0.05 | 0.73 ± 0.05 | 0.78 ± 0.05 | –
CCCCCCCCC [nonane] + CC(CC(C)(C)C)CP(=O)([O-])CC(C)CC(C)(C)C.CCCCCCCCCCCCCC[P+](CCCCCC)(CCCCCC)CCCCCC | 1.04 ± 0.07 | 1.11 ± 0.07 | 1.23 ± 0.08 | 1.25 ± 0.08 | –
CCCO [propan-1-ol] + CC(CC(C)(C)C)CP(=O)([O-])CC(C)CC(C)(C)C.CCCCCCCCCCCCCC[P+](CCCCCC)(CCCCCC)CCCCCC | – | 0.07 ± 0.03 | 0.08 ± 0.03 | 0.09 ± 0.03 | –
C1CCOC1 [tetrahydrofuran] + CC(CC(C)(C)C)CP(=O)([O-])CC(C)CC(C)(C)C.CCCCCCCCCCCCCC[P+](CCCCCC)(CCCCCC)CCCCCC | 0.43 ± 0.04 | 0.45 ± 0.04 | 0.49 ± 0.04 | 0.52 ± 0.04 | –
c1ccsc1 [thiophene] + CC(CC(C)(C)C)CP(=O)([O-])CC(C)CC(C)(C)C.CCCCCCCCCCCCCC[P+](CCCCCC)(CCCCCC)CCCCCC | 0.35 ± 0.03 | 0.4 ± 0.03 | 0.41 ± 0.03 | 0.44 ± 0.04 | –
Cc1ccccc1 [toluene] + CC(CC(C)(C)C)CP(=O)([O-])CC(C)CC(C)(C)C.CCCCCCCCCCCCCC[P+](CCCCCC)(CCCCCC)CCCCCC | 0.5 ± 0.04 | 0.51 ± 0.04 | 0.56 ± 0.04 | 0.59 ± 0.04 | –
O [water] + CC(CC(C)(C)C)CP(=O)([O-])CC(C)CC(C)(C)C.CCCCCCCCCCCCCC[P+](CCCCCC)(CCCCCC)CCCCCC | 0.26 ± 0.03 | 0.27 ± 0.03 | 0.3 ± 0.03 | 0.31 ± 0.03 | –

Source: the NIST ThermoML archive (doi:10.1016/j.jct.2019.05.011)
